The source of these data is patent US10508109B2 (priority 2015, dated 2019).

The target of one assay is SUV39H2 (Homo sapiens (Human), UniProt Q9H5I1). Particulars: read-out: IC50 (μM) Suv 39H2 assay; enzyme assay.
In another assay the test system is A549. Description: Cell-based assay, anti-proliferative activity (Cell Counting Kit-8, 72 hours). The note with it: Homo sapiens, read-out: IC50 (μM) A549. Put shortly: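 Growth read-out after inhibitor treatment of plated cells; potency expressed as IC50.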
For orientation: Tetrazolium assays rely on reduction of a dye to a coloured formazan, in cell work by metabolically active cells.

The subject of a further assay is CCD-18Co. Described as above. Particulars: Homo sapiens, read-out: IC50 (μM) CCD-18Co. Put shortly: (§1)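 Anti-proliferative IC50 obtained from 96-well cultures treated 72 h with inhibitor at 0–100 micro-M, growth assessed by a CCK-8 colorimetric readout.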
The next assay has as its system HFL1. Described as above. The note with it: Homo sapiens, read-out: IC50 (μM) HFL1. The method in brief: as §1
The test system of the next assay is HCT-116. Described as above. The note with it: Homo sapiens, read-out: IC50 (μM) HCT-116. Put shortly:
as §1

The subject of a further assay is PC14. Described as above. Particulars: Homo sapiens, read-out: IC50 (μM) PC14. Put shortly: as §1
[1] abbreviates: A549 cells, 72 hours, Cell Counting Kit-8.
The mark [2] stands for this setting: CCD-18Co cells, 72 hours, Cell Counting Kit-8.
Where [3] appears, read: HFL1 cells, 72 hours, Cell Counting Kit-8.
The mark [4] stands for this setting: HCT-116 cells, 72 hours, Cell Counting Kit-8.
Where [5] appears, read: PC-14, PC14 cells, 72 hours, Cell Counting Kit-8.
Setting [6] is: A549 cells, Cell Counting Kit-8, 72 hours.
The mark [7] stands for this setting: CCD-18Co cells, Cell Counting Kit-8, 72 hours.
[8] abbreviates: HFL1 cells, Cell Counting Kit-8, 72 hours.
Where [9] appears, read: HCT-116 cells, Cell Counting Kit-8, 72 hours.
[10] abbreviates: PC-14, PC14 cells, Cell Counting Kit-8, 72 hours.

Counter-ions that a name gives are not always drawn. Like-named read-outs stand apart in the source and are kept apart here.

Chain of SUV39H2 (Q9H5I1 whole entry): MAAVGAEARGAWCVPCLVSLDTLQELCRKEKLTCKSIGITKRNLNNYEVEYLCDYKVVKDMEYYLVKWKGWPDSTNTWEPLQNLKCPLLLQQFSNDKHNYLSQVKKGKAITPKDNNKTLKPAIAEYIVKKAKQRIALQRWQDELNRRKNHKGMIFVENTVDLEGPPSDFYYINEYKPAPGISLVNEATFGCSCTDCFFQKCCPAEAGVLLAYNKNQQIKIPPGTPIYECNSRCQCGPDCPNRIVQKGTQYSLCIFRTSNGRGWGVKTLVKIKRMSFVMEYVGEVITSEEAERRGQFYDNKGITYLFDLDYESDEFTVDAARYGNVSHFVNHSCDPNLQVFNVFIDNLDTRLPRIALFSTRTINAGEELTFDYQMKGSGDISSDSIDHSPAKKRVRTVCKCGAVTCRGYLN

For orientation: IC50 means the point on the concentration scale where inhibition reaches its midpoint. As for `COc1cc(OC)c(-c2cn3ccc(N4CCN(S(=O)(=O)C5CC5)C(CO)C4)cc3n2)cc1Cl` (stereo not drawn) [Example 236, (4-(2-(5-chloro-2,4-dimethoxyphenyl)imidazo[1,2-a]pyridin-7-yl)-1-(cyclopropylsulfonyl)piperazin-2-yl)methanol], the IC50 on SUV39H2 was 0.00655 µM; with A549 (setting [1]) it was 4.8 µM; with CCD-18Co (setting [2]), 4 µM; in the assay on HFL1 (setting [3]), 4.1 µM; in the assay with HCT-116 (setting [4]), 4.4 µM; in the assay on PC14 (setting [5]), 3.3 µM.

`COc1cc(OC)c(-c2cn3ccc(N4CCN(CCN5CCOCC5)CC4)cc3n2)cc1Br` [Example 131, 4-(2-(4-(2-(5-bromo-2,4-dimethoxyphenyl)imidazo[1,2-a]pyridin-7-yl)-piperazin-1-yl)ethyl)morpholine]: the IC50 came to 0.00349 µM on SUV39H2; 8.3 µM in the assay on A549 (setting [6]); 8.3 µM in the assay on CCD-18Co (setting [7]); 7.3 µM in the assay on HFL1 (setting [8]); 8.4 µM in the assay with HCT-116 (setting [9]); 6.8 µM in the assay on PC14 (setting [10]).

As for `COC(=O)Nc1ccn2cc(-c3cc(Cl)c(OC)cc3OC)nc2c1` [Example 183, methyl [2-(5-chloro-2,4-dimethoxyphenyl)imidazo[1,2-a]pyridin-7-yl]-carbamate], the half-inhibitory concentration (IC50) at SUV39H2 came out at 0.0241 µM; in the assay with A549 (setting [6]), 1.8 µM; with CCD-18Co (setting [7]), 1.8 µM; with HFL1 (setting [8]), 2 µM; with HCT-116 (setting [9]), 2.1 µM; with PC14 (setting [10]), 1.9 µM.

Turning to `COc1cc(OC)c(-c2cn3ccc(NC(=O)[C@H](C(C)C)N(C)C)cc3n2)cc1Cl` [Example 272, (S)—N-(2-(5-chloro-2,4-dimethoxyphenyl)imidazo[1,2-a]pyridin-7-yl)-2-(dimethylamino)-3-methylbutanamide], the IC50 on SUV39H2 came to 0.0961 µM; with A549 (A549, 72 h) it was 0.86 µM; with CCD-18Co (CCD-18Co, 72 h) it was 0.47 µM; in the assay on HFL1 (HFL1, 72 h), 0.45 µM; with HCT-116 (HCT-116, 72 h), 2.9 µM; in the assay with PC14 (PC-14, 72 h), 0.98 µM.

For `COc1cc(OC)c(-c2cn3ccc(N4CCN(S(=O)(=O)C5CC5)CC4)cc3n2)cc1Cl` [Example 103, 2-(5-chloro-2,4-dimethoxyphenyl)-7-[4-(cyclopropylsulfonyl)piperazin-1-yl]imidazo[1,2-a]pyridine], the IC50 at SUV39H2 worked out at 0.0103 µM; with A549 (setting [6]), 1.3 µM; in the assay on CCD-18Co (setting [7]) it was 1.6 µM; in the assay on HFL1 (setting [8]) it was 0.61 µM; in the assay with HCT-116 (setting [9]), 0.55 µM; with PC14 (setting [10]) it was 0.7 µM.

Regarding `COc1cc(OC)c(-c2cn3ccc(N4CCNC4=O)cc3n2)cc1Cl` [Example 138, 1-(2-(5-chloro-2,4-dimethoxyphenyl)imidazo[1,2-a]pyridin-7-yl)-imidazolidin-2-one], the IC50 on SUV39H2 stood at 0.0201 µM; in the assay with A549 (setting [6]) it was 5.2 µM; with CCD-18Co (setting [7]), 2.2 µM; in the assay on HFL1 (setting [8]), 5.5 µM; with HCT-116 (setting [9]), 16 µM; in the assay on PC14 (setting [10]), 3.6 µM.

As to `COc1cc(OC)c(-c2cn3ccc(N4CCN(c5ccnc(N)n5)CC4)cc3n2)cc1Cl` [Example 279, 4-(4-(2-(5-chloro-2,4-dimethoxyphenyl)imidazo[1,2-a]pyridin-7-yl)-piperazin-1-yl)pyrimidin-2-amine], the half-maximal inhibitory concentration (IC50) at SUV39H2 amounted to 0.00938 µM; in the assay with A549 (setting [1]) it was 0.32 µM; in the assay on CCD-18Co (setting [2]), 0.33 µM; in the assay with HFL1 (setting [3]), 0.33 µM; with HCT-116 (setting [4]), 0.32 µM; in the assay with PC14 (setting [5]) it was 0.38 µM.

As to `COc1cc(OC)c(-c2cn3ccc(N4CCC(NC(C)=O)C4)cc3n2)cc1Cl` (stereo not drawn) [Example 37, N-(1-(2-(5-chloro-2,4-dimethoxyphenyl)imidazo[1,2-a]pyridin-7-yl)pyrrolidin-3-yl)acetamide], the half-maximal inhibitory concentration (IC50) on SUV39H2 was 0.00435 µM; in the assay with A549 (setting [6]), 14 µM; with CCD-18Co (setting [7]) it was 11 µM; in the assay with HFL1 (setting [8]), 5.4 µM; in the assay with HCT-116 (setting [9]) it was 12 µM; with PC14 (setting [10]) it was 8.2 µM.

Take `COc1cc(OC)c(-c2cn3ccc(-c4ccc(C(=O)NCC5CCCNC5)cc4)cc3n2)cc1Cl` (stereo not drawn) [Example 251, 4-(2-(5-chloro-2,4-dimethoxyphenyl)imidazo[1,2-a]pyridin-7-yl)-N-(piperidin-3-ylmethyl)benzamide]: the IC50 at SUV39H2 is 0.0308 µM; with A549 (setting [1]) it was 9.7 µM; in the assay with CCD-18Co (setting [2]) it was 10 µM; in the assay on HFL1 (setting [3]), 8.3 µM; in the assay with HCT-116 (setting [4]), 5.8 µM; with PC14 (setting [5]), 5.4 µM.

Take `COc1cc(OC)c(-c2cn3ccc(N4CCC(NC(=O)OC(C)(C)C)C4)cc3n2)cc1C#N` (stereo not drawn) [Example 71, tert-butyl {1-[2-(5-cyano-2,4-dimethoxyphenyl)imidazo[1,2-a]pyridin-7-yl]pyrrolidin-3-yl}carbamate]: the IC50 on SUV39H2 came to 0.0075 µM; in the assay on A549 (setting [6]) it was 2.6 µM; with CCD-18Co (setting [7]), 3.2 µM; in the assay with HFL1 (setting [8]), 1.6 µM; in the assay on HCT-116 (setting [9]), 1.9 µM; in the assay with PC14 (setting [10]) it was 2 µM.

As for `COc1cc(OC)c(-c2cn3ccc(NC(=O)CCNC(=O)OC(C)(C)C)cc3n2)cc1Cl` [Example 157, tert-butyl (3-{[2-(5-chloro-2,4-dimethoxyphenyl)imidazo[1,2-a]pyridin-7-yl]amino}-3-oxopropyl)carbamate], the IC50 amounted to 0.0628 µM on SUV39H2; 7.5 µM with A549 (setting [6]); 7.1 µM in the assay on CCD-18Co (setting [7]); 4.7 µM in the assay on HFL1 (setting [8]); 6.8 µM in the assay on HCT-116 (setting [9]); 6.2 µM in the assay on PC14 (setting [10]).

`COc1cc(OC)c(-c2cn3ccc(N4CCN(CCCC(=O)O)CC4)cc3n2)cc1Cl` [Example 240, 4-(4-(2-(5-chloro-2,4-dimethoxyphenyl)imidazo[1,2-a]pyridine-7-yl)piperazin-1-yl)butanoic acid]: the IC50 turned out to be 0.0063 µM on SUV39H2; 10 µM in the assay on A549 (setting [1]); 10 µM with CCD-18Co (setting [2]); 10 µM in the assay on HFL1 (setting [3]); 10 µM in the assay with HCT-116 (setting [4]); 10 µM in the assay on PC14 (setting [5]).

`COc1cc(OC)c(-c2cn3ccc(N4CCCC4)nc3n2)cc1Cl` [Example 9, 2-(5-chloro-2,4-dimethoxyphenyl)-7-(pyrrolidin-1-yl)imidazo-[1,2-a]pyrimidine hydrobromide]: the IC50 came out at 0.00608 µM at SUV39H2; 8 µM with A549 (setting [6]); 8 µM with CCD-18Co (setting [7]); 7.1 µM in the assay on HFL1 (setting [8]); 6.8 µM in the assay on HCT-116 (setting [9]); 6.3 µM in the assay with PC14 (setting [10]).

For `CCOP(=O)(CCN1CCCN(c2ccn3cc(-c4cc(Cl)c(OC)cc4OCCCN(C)C)nc3c2)CC1)OCC` [Example 214, diethyl (2-(4-(2-(5-chloro-2-(3-(dimethylamino)propoxy)-4-methoxyphenyl)-imidazo[1,2-a]pyridin-7-yl)-1,4-diazepan-1-yl)ethyl)phosphonate], the IC50 on SUV39H2 was 0.0106 µM; with A549 (setting [1]), 10 µM; with CCD-18Co (setting [2]), 10 µM; in the assay with HFL1 (setting [3]), 10 µM; in the assay on HCT-116 (setting [4]), 10 µM; in the assay on PC14 (setting [5]) it was 10 µM.

Turning to `COc1cc(OC)c(-c2cn3ccc(N4CCC(NS(C)(=O)=O)C4)cc3n2)cc1Cl` (stereo not drawn) [Example 40, N-(1-(2-(5-chloro-2,4-dimethoxyphenyl)imidazo[1,2-a]pyridin-7-yl)pyrrolidin-3-yl)methanesulfonamide], the IC50 at SUV39H2 was determined as 0.00381 µM; in the assay on A549 (setting [6]) it was 17 µM; in the assay on CCD-18Co (setting [7]) it was 15 µM; in the assay with HFL1 (setting [8]), 14 µM; in the assay on HCT-116 (setting [9]), 14 µM; in the assay with PC14 (setting [10]), 6.7 µM.

In the case of `CNc1ccn2cc(-c3cc(Br)c(OC)cc3OC)nc2c1` [Example 11, 2-(5-bromo-2,4-dimethoxyphenyl)-N-methylimidazo[1,2-a]pyridin-7-amine hydrobromide], the IC50 worked out at 0.0094 µM at SUV39H2; 1.4 µM in the assay on A549 (A549, 72 h); 2 µM with CCD-18Co (CCD-18Co, 72 h); 1.7 µM in the assay with HFL1 (HFL1, 72 h); 1.1 µM in the assay on HCT-116 (HCT-116, 72 h); 0.88 µM with PC14 (PC-14, 72 h).

As to `COc1cc(OC)c(-c2cn3ccc(N4CC[C@H](NCc5ccc(C(F)(F)F)cc5)C4)cc3n2)cc1Cl` [Example 303, (S)-1-(2-(5-chloro-2,4-dimethoxyphenyl)imidazo[1,2-a]pyridin-7-yl)-N-(4-(trifluoromethyl)benzyl)pyrrolidin-3-amine], the IC50 was determined as 0.0278 µM on SUV39H2; 1 µM with A549 (setting [1]); 0.86 µM in the assay on CCD-18Co (setting [2]); 0.68 µM in the assay on HFL1 (setting [3]); 0.7 µM with HCT-116 (setting [4]); 0.95 µM in the assay with PC14 (setting [5]).
